Measured values from US12383556B2, “Methods of treating Sjögren's syndrome using a Bruton's tyrosine kinase inhibitor” (NOVARTIS AG, priority 2019, dated 2025).
Where two headings read alike, the source gives them in different places.

Columns and labels:
BTK [1] = target: T1, BTK (Rattus norvegicus, UniProt Q5S255); experiment: BTK occupancy ex vivo immunoassay (biotinylated BTK probe) in tissues after oral dosing
T1 construct: total BTK relative protein levels were determined in lysates of selected tissues; from tissue; host or cells: rat spleen, blood, lymph nodes, lung (lysates)
Experimental: (§1) The in vivo PD effects of an irreversible BTK inhibitor like compound (I) are determined by the extent and duration of covalent BTK occupancy by the inhibitor. BTK occupancy after treatment with Compound of Formula (I) (also referenced to as Compound (I)) was measured in an ex vivo immunoassay. The fraction of unoccupied BTK protein was assayed after in vitro incubation with a covalent biotinylated BTK probe, since compound (I) and the probe bind to BTK in a mutually exclusive manner. Unoccupied BTK, as well as total BTK relative protein levels were determined in lysates of selected tissues and levels of unoccupied BTK were normalized to total BTK protein levels in the same samples.
(§2) From the experimental data it was apparent that a short transient systemic exposure of compound (I) is sufficient to achieve full BTK occupancy in several tissues at low oral doses of 1-3 mg/kg. […] This very low and transient systemic exposure is consistent with the PK/PD model typical of irreversible inhibitors.
(§3) The duration of BTK occupancy was determined in rats and mice after single oral dose of compound (I) for spleen, blood, lymph nodes and lung. […] The longer persistence of BTK occupancy in blood has been reported before (Advani et al 2013, J Clin Onc; 31(1):88-94).

BTK [2] = experiment: as above; parameters: species or system rat; conditions: spleen of rodents
Experimental: as §1, §2, §3

[3] = First-in-human Part 1 single ascending dose blood PK; format: in vivo
Experimental: A first-in-human study was conducted to assess the safety and tolerability, pharmacokinetics (PK) and pharmacodynamics (PD) of single and multiple doses of compound (I) both as once daily (qd) and twice daily (bid) oral administration in healthy volunteers and those with atopic diathesis, to support further clinical development of compound (I) in autoimmune diseases. This study also explored the effect of food intake.
First-in-human study in up to approximately 168 healthy volunteers (HVs), of which 64 (in Parts 2 & 4) had asymptomatic atopic diathesis. • Part 1 was a double-blind (subject and investigator blind, sponsor unblinded), placebo-controlled single ascending dose (SAD) escalation study of 10 cohorts (N=80) • Part 2 was a double-blind (subject and investigator blind, sponsor unblinded), placebo-controlled multiple ascending dose (MAD) (13 doses over 12 days) escalation study employing once daily dosing in 6 cohorts in healthy volunteers with asymptomatic atopic diathesis (N=48) • Part 3 was a single dose open-label crossover food effect study in 12 HVs • Part 4 was a double-blind (subject and investigator blind, sponsor unblinded), placebo-controlled multiple dose (25 doses over 12 days) study employing twice daily dosing in 2 cohorts of healthy volunteers with asymptomatic atopic diathesis (N=16)
In Part 1, subjects were admitted to the study site on Day −2 or −1 for baseline safety assessments and to confirm eligibility. Eligible subjects received a single dose of compound (I) or placebo under fasting conditions on Day 1. They were domiciled from Day −1 to the morning of Day 5 (96 hours post last drug administration).
Subjects were assigned to one of the following 10 cohorts. In each cohort, 8 subjects were randomized to either compound (I) or matching placebo in an overall 6:2 ratio. The first sub-cohort was randomized in a 1:1 ratio as one subject on compound (I) and one on matching placebo. The remaining 6 subjects per cohort, dosed after a 48-hour observation period of the initially dosed 2 subjects, were randomized in a 5:1 ratio. • Cohort 1: single oral dose of 0.5 mg compound (I) or matching placebo • Cohort 2: single oral dose of 1.5 mg compound (I) or matching placebo • Cohort 3: single oral dose of 5 mg compound (I) or matching placebo • Cohort 4: single oral dose of 15 mg compound (I) or matching placebo • Cohort 5: single oral dose of 30 mg compound (I) or matching placebo • Cohort 6: single oral dose of 60 mg compound (I) or matching placebo • Cohort 7: single oral dose of 100 mg compound (I) or matching placebo • Cohort 8: single oral dose of 200 mg compound (I) or matching placebo • Cohort 9: single oral dose of 400 mg compound (I) or matching placebo • Cohort 10: single oral dose of 600 mg compound (I) or matching placebo
Pharmacokinetic samples were obtained in blood and evaluated in all subjects at all dose levels. The samples from placebo subjects were not analyzed. The samples for PK assessments from subjects were collected at time points defined in the study. Compound (I) concentrations were determined in blood by a validated LC-MS/MS method.

BTK [4] = target: T2, BTK (Homo sapiens, UniProt Q06187); experiment: BTK occupancy in human whole blood (free and total BTK ELISA, MSD); format: in vivo
T2 construct: from tissue; host or cells: human whole blood (peripheral blood of dosed volunteers)
Experimental: Pharmacodynamics (PD) was characterized by assessing target occupancy and distal pathway inhibition. Measurements of BTK occupancy in human whole blood (derived as ratio of free and total BTK), served as direct marker of therapeutic target engagement.
Compound of formula (I) is an irreversible inhibitor of BTK, the extent and duration of BTK occupancy were determined.
The relationship between dose and pharmacodynamics was characterized by measurements of BTK occupancy in human blood (derived as ratio of free and total BTK), a direct marker of therapeutic target engagement. BTK occupancy was determined for single ascending doses ranging 0.5 to 400 mg, for q.d. multiple ascending doses ranging from of 10 mg and 400 mg, and for b.i.d. multiple ascending doses of 100 mg and 200 mg.

[5] = tested on: defined allergen response (wheal size); experiment: Skin prick test (SPT) in healthy atopic subjects; format: in vivo, human; conditions: for dose at which reduction of wheal size in SPT started to plateau: multiple ascending dose, q.d.
Experimental: The ability of compound (I) to inhibit a defined allergen response has been evaluated by means of the skin prick test (SPT) in healthy atopic subjects in the MAD study part of the first in human study. SPT was performed prior to dosing (at screening, baseline and pre-dose on Day 1) and at different time points after the first dose (Day 1) and after 11 days of once daily dosing (Day 12).

[6] = after single dose, peripheral blood

T1 sequence (Q5S255 1-660): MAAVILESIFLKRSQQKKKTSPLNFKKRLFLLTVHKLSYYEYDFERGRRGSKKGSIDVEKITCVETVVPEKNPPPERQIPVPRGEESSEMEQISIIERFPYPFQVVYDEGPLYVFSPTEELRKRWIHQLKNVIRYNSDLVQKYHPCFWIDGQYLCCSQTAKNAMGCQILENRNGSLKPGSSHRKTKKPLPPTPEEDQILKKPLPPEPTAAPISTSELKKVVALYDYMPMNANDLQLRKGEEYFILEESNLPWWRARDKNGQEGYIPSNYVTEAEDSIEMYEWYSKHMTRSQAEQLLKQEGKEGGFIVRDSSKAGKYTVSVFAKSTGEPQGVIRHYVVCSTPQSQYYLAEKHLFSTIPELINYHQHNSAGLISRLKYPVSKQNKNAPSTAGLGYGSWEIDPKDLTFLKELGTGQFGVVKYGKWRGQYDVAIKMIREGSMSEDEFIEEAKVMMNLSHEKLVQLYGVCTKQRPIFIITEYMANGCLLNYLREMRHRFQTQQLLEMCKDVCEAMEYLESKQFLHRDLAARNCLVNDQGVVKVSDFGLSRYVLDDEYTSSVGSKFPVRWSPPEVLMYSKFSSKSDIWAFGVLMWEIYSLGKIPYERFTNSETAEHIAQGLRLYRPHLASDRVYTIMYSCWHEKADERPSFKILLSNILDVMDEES
T2 sequence (Q06187 whole entry): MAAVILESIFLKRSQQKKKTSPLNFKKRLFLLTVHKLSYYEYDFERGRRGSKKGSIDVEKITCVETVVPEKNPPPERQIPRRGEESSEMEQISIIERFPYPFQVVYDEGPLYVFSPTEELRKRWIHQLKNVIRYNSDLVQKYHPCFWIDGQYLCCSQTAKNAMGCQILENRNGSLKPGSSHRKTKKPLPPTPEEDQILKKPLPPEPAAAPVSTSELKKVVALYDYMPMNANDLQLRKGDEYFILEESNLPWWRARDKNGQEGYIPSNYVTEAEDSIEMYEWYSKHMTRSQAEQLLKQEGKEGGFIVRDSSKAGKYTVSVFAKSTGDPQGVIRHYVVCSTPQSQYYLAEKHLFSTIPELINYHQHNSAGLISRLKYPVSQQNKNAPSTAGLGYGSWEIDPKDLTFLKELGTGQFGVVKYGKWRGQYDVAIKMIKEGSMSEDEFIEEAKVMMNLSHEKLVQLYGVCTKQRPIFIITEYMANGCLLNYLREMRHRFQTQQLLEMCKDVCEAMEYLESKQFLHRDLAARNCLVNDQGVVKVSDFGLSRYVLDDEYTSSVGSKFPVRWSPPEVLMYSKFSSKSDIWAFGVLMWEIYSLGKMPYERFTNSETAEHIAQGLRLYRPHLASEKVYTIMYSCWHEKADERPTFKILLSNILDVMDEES

BTK occupancy in blood (BTK [1]; female rats, single oral dose): consistent with those observed in spleen | spleen BTK occupancy (BTK [1]; female rats, single oral dose 3 mg/kg): full | receptor occupancy at 0.3 mg/kg (BTK [1]; rat, female rats, single oral dose 0.3 mg/kg, read-out: spleen BTK occupancy): 30% | receptor occupancy at 1 mg/kg (BTK [1]; rat, female rats, single oral dose 1 mg/kg, read-out: spleen BTK occupancy): 76 to 81% | BTK occupancy half-life in blood (BTK [1]; rats, single oral dose): approximately 87 hours | BTK occupancy half-life in spleen (BTK [1]; rats, single oral dose): approximately 5 hours | half-life ([3]; human, blood, oral, single ascending doses, dose-independent, read-out: distribution phase T1/2 (converted)): ~1 h | MRT ([3]; human, blood, oral, single ascending doses, read-out: mean residence time (MRT) in the circulation): 1 to 5 h | half-life ([3]; human, blood, oral, single dose 100 mg, read-out: terminal half-life (converted)): 4 h | half-life ([3]; human, blood, oral, single dose 600 mg, read-out: terminal half-life (converted)): 18 h | oral blood clearance CL/F, estimate across all cohorts ([3]; single dose): about 383 L/h | BTK occupancy in blood (BTK [4]; 10 mg q.d.): nearly complete | through BTK occupancy in blood (BTK [4]; 10 mg q.d., pre-dose at day 12): > 96% | median BTK turnover T1/2 (BTK [4]; [6]): about 48 hours | time to refresh BTK protein pool to pre-dose levels (BTK [4]; [6]): about 10 days | duration of BTK occupancy in blood (BTK [4]; in vivo): > 24 h | time of peak target occupancy post dose (BTK [4]; peripheral blood): 0.5 h | BTK occupancy at 24 h (BTK [4]; single doses of 15 mg and above): above 80% | peak target (BTK) occupancy (BTK [4]; single doses of 15 mg and above, nearly all subjects): ~100% | duration of sustained BTK occupancy (BTK [4]; single doses of 30 mg and higher): > 24 h | BTK occupancy (near-complete) (BTK [4]; single doses of 30 mg and higher, all subjects): > 90%
Compound: C=CC(=O)N(C)CCOc1c(N)ncnc1-c1cc(F)cc(NC(=O)c2ccc(C3CC3)cc2F)c1C [Compound of Formula (I), N-(3-(6-Amino-5-(2-(N-methylacrylamido)ethoxy)pyrimidin-4-yl)-5-fluoro-2-methylphenyl)-4-cyclopropyl-2-fluorobenzamide]
BTK turnover in tissue (spleen) (BTK [2]): approximately 5 hours | inhibition of wheal size in SPT ([5]; 10 mg q.d.): minimal inhibition | dose at which reduction of wheal size in SPT started to plateau ([5]; listed as compound (I)): around 100 mg | dose at which reduction of wheal size in SPT started to plateau ([5]; listed as compound of Formula (I)): 100 mg
